Measurements reported in PubChem BioAssay (NCI).
Values joined by “and” are separate entries in the source; they are usually repeats but may differ in a detail not shown here. Identical values can stand only once.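 Protocol summary: plate cells (96-well), add compound at 5 concentrations, incubate 48 h, interpolate endpoints linearly. Here, GI50 denotes the concentration required for 50% inhibition of growth. TGI is the concentration that stops growth completely.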

How the values were obtained:
Experiment in all cases: NCI tumour cell line growth inhibition, 48 h
DMS 273 small cell lung = test system: DMS 273 small cell lung
HOP-18 NSCLC = test system: HOP-18 NSCLC
KM20L2 colon = test system: KM20L2 colon
LXFL 529 NSCLC = test system: LXFL 529 NSCLC
M19-MEL melanoma = test system: M19-MEL melanoma
RXF-631 renal = test system: RXF-631 renal
SNB-78 CNS = test system: SNB-78 CNS
XF 498 CNS = test system: XF 498 CNS
MDA-N = test system: MDA-N

Row | SMILES | TGI (DMS 273 small cell lung) [µM] | TGI (HOP-18 NSCLC) [µM] | TGI (KM20L2 colon) [µM] | TGI (LXFL 529 NSCLC) [µM] | TGI (M19-MEL melanoma) [µM] | TGI (RXF-631 renal) [µM] | TGI (SNB-78 CNS) [µM] | TGI (XF 498 CNS) [µM] | GI50 (DMS 273 small cell lung) [µM] | GI50 (KM20L2 colon) [µM] | GI50 (SNB-78 CNS) [µM] | TGI (MDA-N) | GI50 (MDA-N) [µM] | GI50 (LXFL 529 NSCLC) [µM] | GI50 (M19-MEL melanoma) [µM]
1 | O=C(Nc1nc2ccc([N+](=O)[O-])cc2s1)C(=O)C(C(=O)c1ccncc1)C1OC(=O)c2ccccc21 (stereo not given) | > 100 | > 100 | > 100 | > 100 | > 100 | > 100 | > 100 | > 100 |  |  |  |  |  |  | 
2 | COc1nc2c(nc(N)n2C2OCC(O)C(O)C2O)c(=O)n1C (stereo not given) |  | > 100 | > 100 | > 100 | > 100 |  | > 100 | > 100 |  |  |  |  |  |  | 
3 | O=c1cccccc1[O-].O=c1cccccc1[O-].O=c1cccccc1[O-].[Ce+3] | > 100 |  | > 100 |  |  |  | 63.2 |  | 11.4 | 24.1 | 15.4 |  |  |  | 
4 | CCc1ccc2nccc(NCCCN(C)C)c2c1[N+](=O)[O-] |  |  |  |  |  |  |  |  |  |  |  | > 100 µM |  |  | 
5 | CC1(C(=O)O)CCOc2ccccc21 (stereo not given) |  | > 100 | > 100 | > 100 | > 100 |  | > 100 |  |  |  |  |  |  |  | 
6 | CC(=O)[O-].[Zn].c1ccc(/C(=N\Nc2ccccn2)c2ccccn2)cc1 | 1.88 | 0.918 | 1.75 | 1.79 | 1.89 |  | 12.5 |  |  |  |  |  |  |  | 
7 | C=C1CCCC2[C@](C)(CC3=C(O)C(=O)C=C(OC)C3=O)[C@@H](C)CC[C@]12C (stereo not given in full) |  | 8.59 | 31.8 | 27.2 | 5.95 | > 100 |  | 56.7 |  |  |  |  |  |  | 
8 | S=c1sc2cscc2s1 | > 100 | 67.2 | 66.5 | 38.6 | 34.3 | 61 | > 100 | 49.9 |  |  |  |  |  |  | 
9 | OCC(O)C(O)C(O)c1nn(-c2ccccc2)c2nc3cc(Cl)c(Cl)cc3nc12 (stereo not given) | > 100 | > 100 | > 100 | > 100 | > 100 |  | > 100 | 69.3 |  |  |  |  |  |  | 
10 | Nc1cc(S(N)(=O)=O)ccc1SSc1ccc(S(N)(=O)=O)cc1N |  |  |  |  |  |  |  |  |  |  |  | > 100 µM |  |  | 
11 | Cc1ccc(C2=C(c3ccc(C)cc3)C(c3ccc(C)cc3)=C(c3ccc(C)cc3)C2=O)cc1 |  | > 100 | > 100 | > 100 | > 100 | > 100 | > 100 | > 100 |  |  |  |  |  |  | 
12 | O=C(Nc1ccc(Br)cc1)C(=O)C(C(=O)c1ccccc1F)C1OC(=O)c2ccccc21 (stereo not given) | > 100 | > 100 | > 100 | 89.5 | 42.7 | > 100 | 72.6 |  |  |  |  |  |  |  | 
13 | CC(C)CC12CC3CCC(CNC1=O)C32C (stereo not given) | > 100 | > 100 |  | > 100 | > 100 |  | > 100 | > 100 |  |  |  |  |  |  | 
14 | Cc1nc2c(N3CCCC3)nc(N3CCNCC3)nc2nc1NCc1ccccc1 |  |  |  |  |  |  |  |  |  |  |  | 9.44 µM and 3.28 µM | 4.38 |  | 
15 | CC1CCCc2c1c1ccc3c(O)cccc3c1oc2=O (stereo not given) | > 100 | > 100 | > 100 | > 100 | > 100 |  | > 100 | > 100 |  |  |  |  |  |  | 
16 | CCN(CC)c1ccc(N=C2C=C(Cl)C(=O)c3ncccc32)c(C)c1 | 16.8 | 9.75 | 26.9 |  | 68.5 | 35.3 | 43.4 | 18.7 |  |  |  |  |  |  | 
17 | CC(C)C(=O)[O-].CC(C)C(=O)[O-].N.N.N.N.[Co+3].[O-][Cl+3]([O-])([O-])[O-] | > 100 |  | > 100 | > 100 |  |  | > 100 |  | > 100 | > 100 | > 100 |  |  | > 100 | 
18 | COc1cc(/C=C\c2ccc(Br)cc2)cc(OC)c1OC | 13.8 |  |  | > 100 | > 100 | > 100 |  |  |  |  |  |  |  |  | 0.363

Row | SMILES | TGI (DMS 273 small cell lung) [µM] | TGI (HOP-18 NSCLC) [µM] | TGI (KM20L2 colon) [µM] | TGI (LXFL 529 NSCLC) [µM] | TGI (M19-MEL melanoma) [µM] | TGI (RXF-631 renal) [µM] | TGI (SNB-78 CNS) [µM] | TGI (XF 498 CNS) [µM] | GI50 (DMS 273 small cell lung) [µM] | GI50 (KM20L2 colon) [µM] | GI50 (SNB-78 CNS) [µM] | TGI (MDA-N) | GI50 (MDA-N) [µM] | GI50 (LXFL 529 NSCLC) [µM] | GI50 (M19-MEL melanoma) [µM]
19 | CCOC(=O)C1=C(Nc2ccc(Br)cc2)OC/C1=N\NC(=O)c1ccccc1O | 17 | > 100 | > 100 | > 100 | > 100 |  | > 79.7 |  |  |  |  |  |  |  | 
20 | CC(=O)OC1CCC2C(=CCC3C2(C)C(=O)CC2(C)C(C4(C)OC(C(C)C)=CC4=O)C(O)CC32C)C1(C)C (stereo not given) | 58.3 |  | 51.4 | 92.1 | 47.7 |  | > 100 | > 100 |  |  |  |  |  |  | 
21 | CC(=O)/C=C1\CC(=O)Nc2ccccc2N1 |  |  | > 100 | > 100 |  |  | > 100 |  |  |  |  |  |  |  | 
22 | CCn1c(=O)c2ccccc2n2c(=O)c3cc4ccccc4cc3nc12 | > 100 |  | > 100 | > 100 | > 100 |  | > 100 | 49 |  |  |  |  |  |  | 
23 | OCC(CCc1c[nH]c2ccccc12)c1c[nH]c2ccccc12 (stereo not given) |  |  |  |  |  |  |  |  |  |  |  | 31 µM |  |  | 
24 | CS/C(c1ccccc1)=[N+](\[O-])Cc1ccccc1 |  | > 100 | > 100 | > 100 | > 100 |  | > 100 | > 100 |  |  |  |  |  |  | 
25 | COc1ccc2c(CCNC(=O)/C=C/c3ccccc3)c(C(C)=O)[nH]c2c1[N+](=O)[O-] | 29.2 |  | > 100 | > 100 |  | 28.4 | > 100 |  |  |  |  |  |  |  | 
26 | CCOC(=O)N1C(c2ccccc2)C=CC(c2ccccc2)N1C(=O)OCC (stereo not given) |  | > 100 | > 100 |  | > 100 |  | > 100 | > 100 |  |  |  |  |  |  | 
27 | O=C(O)c1ccccc1N=Nc1ccc2oc(=O)c(C(=O)Nc3ccccc3)cc2c1 | > 100 | > 100 | 83.9 |  | > 100 |  |  | > 100 |  |  |  |  |  |  | 
28 | N#Cc1ccc(Oc2cccc(Oc3ccccc3)c2)cc1C#N |  |  | > 100 | > 100 | > 100 | > 100 |  |  |  | > 100 |  |  |  |  | > 100
29 | O=C(N/C(=C\c1ccc(/C=C(\NC(=O)c2ccccc2)c2nc3ccccc3s2)cc1)c1nc2ccccc2s1)c1ccccc1 | 10.8 | 26 | 11.2 | 10.9 | 15.2 | 20.6 | 62.3 |  |  |  |  |  |  |  | 
30 | Cn1c(=O)c(C(=O)NC(=O)NCCCCCOC(=O)CCCCCCCCCCC(=O)OCCCCCNC(=O)NC(=O)c2cn(Cc3ccccc3)c(=O)n(C)c2=O)cn(Cc2ccccc2)c1=O | > 100 | > 100 | > 100 | > 100 | > 100 |  | > 100 | > 100 |  |  |  |  |  |  | 
31 | CCOC(=O)c1ccc(N2C(=O)Cc3ccccc3C2=O)cc1 | > 100 |  | > 100 | > 100 | > 100 |  | > 100 |  |  |  |  |  |  |  | 
32 | CN(C)CCSCCO |  |  |  |  |  |  |  |  |  |  |  | > 100 µM |  |  | 
33 | CS(=O)(=O)N(CCC#N)c1ccc(C=O)cc1 | > 100 |  | > 100 | > 100 | > 100 |  |  | > 100 |  |  |  |  |  |  | 
34 | CCOC(=O)C(C)(C)Oc1ccc2c(-c3ccc(Cl)cc3)c(-c3ccc(Cl)cc3)c(=O)oc2c1 | > 100 |  | > 100 | > 100 | > 100 | > 100 |  |  |  |  |  |  |  |  | 
35 | Cc1c(-c2nnc(-c3ccccc3)o2)c(=O)n(-c2ccccc2)n1C | > 100 | > 100 | > 100 | > 100 | > 100 |  | > 100 | > 100 |  |  |  |  |  |  | 
36 | Clc1cc(-c2ccccc2)nc2ccccc12 |  |  |  |  |  |  |  |  |  |  |  | > 100 µM |  |  | 
